Results: patent publication US20220389001A1, “ATF6 MODULATORS AND USES THEREOF” (Praxis Biotech LLC, priority 2019, published 2022)

Columns and labels:
ATF6 [1] = assay: ERSE ATF6-luciferase assay in presence of Tg-induced ER stress (U2-OS ATF6 TRE-luciferase reporter cells); format: cell-based, Human; conditions: Tg only = 100%; for activity at 1 µM / activity at 10 µM: Homo sapiens, U2OS, 8 h; for activity at 1 µM / ATF6 activity @ 1 μM [%]: 1 μM test compound; for activity at 10 µM / ATF6 activity @ 10 μM [%]: 10 μM test compound; for ATF6 activity @ 1 μM [%] / ATF6 activity @ 10 μM [%]: 8 hr
Description: (§1) To understand how exemplary compounds of the invention modulate the activity of ATF6 in absence or presence of endoplasmic reticulum (ER) stress, a Human bone osteosarcoma (U2-OS)-based TRE-luciferase reporter stable cell line was generated to determine the modulation of transcription of ATF6 target genes.
(§2) U2-OS cells were obtained from the American Type Culture Collection (ATCC HTB-96, ATCC Manassas, Va.) and were cultured with growing medium containing Dulbecco's Modified Eagle's Medium (DMEM) (Cat. No.: SH30023.02, HyClone) supplemented with fetal bovine serum (FBS) 10% (Cat. No.: 16000044, Gibco) and 1% penicillin-streptomycin antibiotic cocktail (Cat. No.: SV30010, Hyclone).
(§3) Cignal Lenti ATF6 luc reporter (Qiagen #CLS-6031L) was used to produce a stable cell line in U2-OS cells (U2-OS ATF6 TRE-luciferase reporter). The lenti ATF6 reporter is a preparation of replication incompetent, VSV-g pseudotyped lentivirus particles expressing the firefly luciferase gene under the control of a minimal (m)CMV promoter and tandem repeats of the ATF6 transcriptional response element (TRE). The number of response elements as well as the intervening sequence between response elements has been experimentally optimized to maximize the signal to noise ratio.
(§4) Exemplary compounds of the invention and reference compounds were prepared from powder as 10 mM stock solutions in dimethyl sulfoxide (DMSO; Cat. No. #D2650, Sigma Aldrich) and stored at −80° C. in presence of N2 neutral atmosphere.
(§5) For the primary screening, 40,000 U2-OS ATF6 TRE-luciferase reporter cells were plated in poly-D-lysine (Cat. No.: P2636, Sigma) pre-coated white 96-well plates (Thermo Scientific Nunc #136101) with 100 μL of growing medium. Cells were incubated in humidified chambers for 24 hr.
For testing exemplary compounds in presence of ER-stress, cells were pre-treated for 30 min with 50 μL growing medium containing either vehicle (DMSO), 1 or 10 μM test compound. After this pre-incubation, 50 μL of a solution containing 0.2 μM of the ER stress-inducer thapsigargin (Tg) was added to the appropriate wells. The Tg solution also contains vehicle or test compounds at 1 or 10 μM as indicated. The final concentration of DMSO in each well was kept at 0.3%. Plates were incubated for 8 hr in humidified chambers.
After the 8 hr incubation, plates were cooled down to room temperature for 10 min prior to the luciferase assays. Luciferase reactions were performed using Luciferase Assay System (Cat. No.: E4550, Promega). Briefly, each well was washed with 100 μl of PBS 1× and, then, 20 μl of lysis reagent was added into each well. Plates were shaken for 10 min and, then, 50 μl of Luciferase Assay Reagent was added to each well. Luminescence was determined by integration of 1 s with a gain of 110 in a Synergy 4 Microplate reader. All measurements were carried out in triplicate.
The average activity determined from the wells containing vehicle only (DMSO, 0% of ATF6 activity) was used as blank and subtracted from the rest of measurements. The average activity determined from the wells containing Tg only was used as 100% of ATF6 activity. The percentage of modulation of exemplary compounds was calculated by normalizing values to potential maximal activation with Tg.
ATF6 activities of exemplary compounds at 1 and 10 μM in presence Tg-induced ER stress tested in the U2-OS ATF6 TRE-luciferase reporter cells were determined and are shown in Table 2.

ATF6 [2] = assay: ERSE ATF6-luciferase assay in absence of ER stress (U2-OS ATF6 TRE-luciferase reporter cells); format: cell-based, Human; conditions: 8 hr, normalized to maximal activation with Tg; for ATF6 activity @ 1 μM- No Tg [%]: 1 μM test compound; for ATF6 activity @ 10 μM- No Tg [%]: 10 μM test compound
Description: as §1, §2, §3, §4, §5
For testing exemplary compounds in absence of ER-stress, cells were treated for 8 hr with 100 μL growing medium containing either vehicle (DMSO), 1 or 10 μM test compound or 0.1 μM Tg. The final concentration of DMSO in each well was kept at 0.3%. Plates were incubated in humidified chambers.
After 8 hr of incubation, plates were cooled down to room temperature for 10 min prior to luciferase assays. Luciferase reactions were performed as above. Luminescence was read by integration of 1 s with a gain of 110 in a Synergy 4 Microplate reader. All measurements were carried out in triplicate.
The average activity determined from the wells containing vehicle only (DMSO, 0% of ATF6 activity) was used as blank and subtracted from the rest of measurements. The percentage of modulation of exemplary compound was calculated by normalizing values to potential maximal activation with Tg.
ATF6 activities of exemplary compounds at 1 and 10 μM in absence of Tg-induced ER stress in the U2-OS ATF6 TRE-luciferase reporter cells were determined and are shown in Table 3.

Row | Structure (SMILES) | activity at 1 µM (ATF6 [1]) | activity at 10 µM (ATF6 [1]) | ATF6 activity @ 1 μM- No Tg [%] (ATF6 [2]) | ATF6 activity @ 10 μM- No Tg [%] (ATF6 [2]) | ATF6 activity @ 1 μM [%] (ATF6 [1]) | ATF6 activity @ 10 μM [%] (ATF6 [1])
1 | Cc1c(NC(=O)c2cc(-c3ccco3)on2)cnn1C(C)c1c(Cl)cccc1Cl (centres unmarked) [Compound 1-22, N-(1-(1-(2,6-dichlorophenyl)ethyl)-5-methyl-1H-pyrazol-4-yl)-5-(furan-2-yl)isoxazole-3-carboxamide] | 75 to 100% | 100 to 125% | + (+ refers to 0% < % activity < 25% at 1 or 10 μM test compound) | + (+ refers to 0% < % activity < 25% at 1 or 10 μM test compound) | – | –
2 | CC(c1ccc(F)cc1F)n1cc(NC(=O)c2cc(-c3ccco3)on2)cn1 (single isomer, unassigned) [Compound 1-17, N-(1-(1-(2,4-difluorophenyl)ethyl)-1H-pyrazol-4-yl)-5-(furan-2-yl)isoxazole-3-carboxamide] | – | – | + (+ refers to 0% < % activity < 25% at 1 or 10 μM test compound) | + (+ refers to 0% < % activity < 25% at 1 or 10 μM test compound) | + (+ refers to 100% < % activity < 125% at 1 or 10 μM) | + (+ refers to 100% < % activity < 125% at 1 or 10 μM)
3 | CC(c1c(Cl)cccc1Cl)n1cc(NC(=O)c2cc(-c3ccco3)on2)cn1 (centres unmarked) [Compound 1-1, N-(1-(1-(2,6-dichlorophenyl)ethyl)-1H-pyrazol-4-yl)-5-(furan-2-yl)isoxazole-3-carboxamide] | – | – | + (+ refers to 0% < % activity < 25% at 1 or 10 μM test compound) | + (+ refers to 0% < % activity < 25% at 1 or 10 μM test compound) | – | –
4 | CC(c1ccc(F)cc1Cl)n1cc(NC(=O)c2cc(-c3ccco3)on2)cn1 (centres unmarked) [Compound 1-6, N-(1-(1-(2-chloro-4-fluorophenyl)ethyl)-1H-pyrazol-4-yl)-5-(furan-2-yl)isoxazole-3-carboxamide] | 100 to 125% | 75 to 100% | – | – | – | –
5 | CC(c1ccc(C(F)(F)F)cc1C(F)(F)F)n1cc(NC(=O)c2cc(-c3cnccn3)no2)cn1 (single isomer, unassigned) [Compound 1-25, N-(1-(1-(2,4-bis(trifluoromethyl)phenyl)ethyl)-1H-pyrazol-4-yl)-3-(pyrazin-2-yl)isoxazole-5-carboxamide] | – | – | – | – | - (- refers to 75% < % activity < 100% at 1 or 10 μM) | - (- refers to 75% < % activity < 100% at 1 or 10 μM)
6 | CC(c1ccc(F)cc1F)n1cc(NC(=O)c2cc(-c3ccco3)on2)cn1 (single isomer, unassigned) [Compound 1-16, N-(1-(1-(2,4-difluorophenyl)ethyl)-1H-pyrazol-4-yl)-5-(furan-2-yl)isoxazole-3-carboxamide] | 100 to 125% | – | + (+ refers to 0% < % activity < 25% at 1 or 10 μM test compound) | + (+ refers to 0% < % activity < 25% at 1 or 10 μM test compound) | – | ++ (++ refers to 125% < % activity < 150% at 1 or 10 μM test compound)
7 | CC(c1c(Cl)cccc1Cl)n1cc(NC(=O)c2cc(-c3cccs3)on2)cn1 (centres unmarked) [Compound 1-13, N-(1-(1-(2,6-dichlorophenyl)ethyl)-1H-pyrazol-4-yl)-5-(thiophen-2-yl)isoxazole-3-carboxamide] | 75 to 100% | 100 to 125% | + (+ refers to 0% < % activity < 25% at 1 or 10 μM test compound) | + (+ refers to 0% < % activity < 25% at 1 or 10 μM test compound) | – | –
8 | O=C(Nc1cnn(Cc2ccc(C(F)(F)F)cc2C(F)(F)F)c1)c1cc(-c2ccco2)on1 [Ceapin-A7, reference compound] | – | – | – | – | --- (--- refers to <50% at 1 or 10 μM test compound) | --- (--- refers to <50% at 1 or 10 μM test compound)
9 | O=C(Nc1cnn(C2CCc3cc(C(F)(F)F)ccc32)c1)c1cc(-c2cnccn2)on1 (centres unmarked) [Compound 1-12, 5-(pyrazin-2-yl)-N-(1-(5-(trifluoromethyl)-2,3-dihydro-1H-inden-1-yl)-1H-pyrazol-4-yl)isoxazole-3-carboxamide] | 75 to 100% | 75 to 100% | – | – | – | –
10 | O=C(Nc1cnn(C2CCCc3ccccc32)c1)c1cc(-c2ccco2)on1 (centres unmarked) [Compound 1-3, 5-(furan-2-yl)-N-(1-(1,2,3,4-tetrahydronaphthalen-1-yl)-1H-pyrazol-4-yl)isoxazole-3-carboxamide] | 100 to 125% | 125 to 150% | – | – | – | –
11 | CC(c1ccc(C(F)(F)F)cc1C(F)(F)F)n1cc(NC(=O)c2cc(-c3cnccn3)no2)cn1 (centres unmarked) [Compound 1-11, N-(1-(1-(2,4-bis(trifluoromethyl)phenyl)ethyl)-1H-pyrazol-4-yl)-3-(pyrazin-2-yl)isoxazole-5-carboxamide] | 50 to 75% | 50 to 75% | – | – | – | –
12 | CC(c1c(F)cccc1Cl)n1cc(NC(=O)c2cc(-c3ccco3)on2)cn1 (single isomer, unassigned) [Compound 1-14, N-(1-(1-(2-chloro-6-fluorophenyl)ethyl)-1H-pyrazol-4-yl)-5-(furan-2-yl)isoxazole-3-carboxamide] | – | – | + (+ refers to 0% < % activity < 25% at 1 or 10 μM test compound) | + (+ refers to 0% < % activity < 25% at 1 or 10 μM test compound) | +++ (+++ refers to >150% at 1 or 10 μM test compound) | +++ (+++ refers to >150% at 1 or 10 μM test compound)
13 | CC(c1c(F)cccc1Cl)n1cc(NC(=O)c2cc(-c3ccco3)on2)cn1 (centres unmarked) [Compound 1-4, N-(1-(1-(2-chloro-6-fluorophenyl)ethyl)-1H-pyrazol-4-yl)-5-(furan-2-yl)isoxazole-3-carboxamide] | > 150% | > 150% | – | – | – | –
14 | CC(c1c(F)cccc1Cl)n1cc(NC(=O)c2cc(-c3ccco3)on2)cn1 (single isomer, unassigned) [Compound 1-15, N-(1-(1-(2-chloro-6-fluorophenyl)ethyl)-1H-pyrazol-4-yl)-5-(furan-2-yl)isoxazole-3-carboxamide] | – | – | + (+ refers to 0% < % activity < 25% at 1 or 10 μM test compound) | + (+ refers to 0% < % activity < 25% at 1 or 10 μM test compound) | + (+ refers to 100% < % activity < 125% at 1 or 10 μM) | + (+ refers to 100% < % activity < 125% at 1 or 10 μM)
15 | CC(c1ccc(C(F)(F)F)cc1C(F)(F)F)n1cc(NC(=O)c2cc(-c3cnccn3)no2)cn1 (single isomer, unassigned) [Compound 1-26, N-(1-(1-(2,4-bis(trifluoromethyl)phenyl)ethyl)-1H-pyrazol-4-yl)-3-(pyrazin-2-yl)isoxazole-5-carboxamide] | – | – | – | – | --- (--- refers to <50% at 1 or 10 μM test compound) | --- (--- refers to <50% at 1 or 10 μM test compound)
16 | CC(c1ccc(F)cc1F)n1cc(NC(=O)c2cc(-c3ccco3)on2)cn1 (centres unmarked) [Compound 1-5, N-(1-(1-(2,4-difluorophenyl)ethyl)-1H-pyrazol-4-yl)-5-(furan-2-yl)isoxazole-3-carboxamide] | 100 to 125% | > 150% | – | – | – | –
